What was measured:
Assay type in all cases: cell-based
AXL = AXL (Homo sapiens (Human), UniProt P30530); assay: AXL autophosphorylation ELISA in A-172 cells; details: cellular, Gas6-stimulated, phospho-AXL ELISA
Protocol: A-172 glioblastoma cells (ATCC #CRL-1620) were seeded at 2.5×10^5 cells/well onto 24-well plates (Greiner #662165), in DMEM (Thermo Fisher #11995-040) containing 10% FBS (Thermo Fisher #26140-079), 1% MEM NEAA (Thermo Fisher #11140-050), 1% GlutaMax (Thermo Fisher #35050-061), and 1% Penicillin Streptomycin (Thermo Fisher #15140-122). A-172 cells were incubated at 37° C., 5% CO2 for 24 h and then starved for 24 h in serum-free medium. Test compounds were serially diluted to produce an 8-point dose curve in fresh serum-free medium to a final concentration of 0.3% DMSO (vehicle) and added to the cells and incubated for 1 h. Cells were then stimulated with 1 μg/mL recombinant human Gas6 (R&D Systems #885-GSB-500) for 15 min, washed with cold PBS, and immediately lysed with 150 μL of cold IX lysis buffer [20 mM Tris, 137 mM sodium chloride, 2 mM EDTA, 10% glycerol, 1% NP-40 alternative, 1 mM activated sodium orthovanadate, 1 mM PefaBloc SC (Sigma-Aldrich #11429868001), protease/phosphatase inhibitor tablet (Thermo Fisher #A32959)]. Lysates were collected and 100 μL/well added into the human phospho-AXL Duo Set IC ELISA (R&D Systems #DYC2228-2). Assay was performed according to manufacturer's instructions and sample phospho-AXL concentrations were extrapolated using human phospho-AXL control (R&D Systems #841645) as a standard. Positive control wells (100% activity) contained Gas6-stimulated, DMSO-treated cell lysates. Negative control wells (0% activity) contained Gas6-stimulated, reference inhibitor-treated cell lysates. IC50 values were calculated by nonlinear regression analysis using a 4-parameter logistic curve fit in ActivityBase XL (IDBS).

Met = Met (Homo sapiens (Human), UniProt P08581); assay: Met autophosphorylation ELISA in PC-3 cells; details: cellular, HGF-stimulated, phospho-Met ELISA, read-out: c-Met IC50
Chain of Met (P08581 25-1390): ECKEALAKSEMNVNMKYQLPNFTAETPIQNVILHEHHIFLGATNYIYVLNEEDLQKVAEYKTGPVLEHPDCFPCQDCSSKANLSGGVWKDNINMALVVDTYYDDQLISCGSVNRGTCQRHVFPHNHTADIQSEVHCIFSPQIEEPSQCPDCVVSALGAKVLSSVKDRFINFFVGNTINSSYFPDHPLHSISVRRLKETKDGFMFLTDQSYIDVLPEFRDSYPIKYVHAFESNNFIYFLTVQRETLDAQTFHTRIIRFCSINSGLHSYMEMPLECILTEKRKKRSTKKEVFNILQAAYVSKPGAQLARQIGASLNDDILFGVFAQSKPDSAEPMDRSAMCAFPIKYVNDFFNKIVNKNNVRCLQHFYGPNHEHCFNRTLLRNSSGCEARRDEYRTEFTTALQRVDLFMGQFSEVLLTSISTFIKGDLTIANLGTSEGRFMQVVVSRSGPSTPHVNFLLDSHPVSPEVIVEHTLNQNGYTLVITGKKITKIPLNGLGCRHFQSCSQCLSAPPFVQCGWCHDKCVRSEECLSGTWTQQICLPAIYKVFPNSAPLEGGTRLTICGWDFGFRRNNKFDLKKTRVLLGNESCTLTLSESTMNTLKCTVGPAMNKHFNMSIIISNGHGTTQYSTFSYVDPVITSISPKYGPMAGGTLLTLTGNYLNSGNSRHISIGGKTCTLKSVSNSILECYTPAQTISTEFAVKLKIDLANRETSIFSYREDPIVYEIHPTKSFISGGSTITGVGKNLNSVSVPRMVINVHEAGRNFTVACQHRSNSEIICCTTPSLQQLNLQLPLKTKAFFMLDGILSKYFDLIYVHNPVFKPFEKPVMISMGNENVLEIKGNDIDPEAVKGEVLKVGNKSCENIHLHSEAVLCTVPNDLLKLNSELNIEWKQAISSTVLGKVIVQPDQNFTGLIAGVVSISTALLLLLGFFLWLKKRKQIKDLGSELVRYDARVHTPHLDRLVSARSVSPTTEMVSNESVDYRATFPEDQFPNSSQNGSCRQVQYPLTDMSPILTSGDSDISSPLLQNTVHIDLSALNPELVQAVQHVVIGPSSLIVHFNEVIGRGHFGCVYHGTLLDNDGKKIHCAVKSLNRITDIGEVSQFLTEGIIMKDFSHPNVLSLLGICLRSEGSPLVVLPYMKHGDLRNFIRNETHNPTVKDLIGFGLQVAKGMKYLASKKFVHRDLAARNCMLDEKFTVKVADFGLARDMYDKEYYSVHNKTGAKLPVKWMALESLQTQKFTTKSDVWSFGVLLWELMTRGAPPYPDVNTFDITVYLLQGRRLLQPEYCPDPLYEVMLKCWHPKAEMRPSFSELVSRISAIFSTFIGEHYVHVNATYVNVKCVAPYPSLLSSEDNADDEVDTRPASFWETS
Protocol: PC-3 prostate cancer cells (ATCC #CRL-1435) were seeded at 4×10^4 cells/well onto 24-well plates (Greiner #662165), in DMEM (Thermo Fisher #11995-040) containing 10% FBS (Thermo Fisher #26140-079), 1% MEM NEAA (Thermo Fisher #11140-050), 1% GlutaMax (Thermo Fisher #35050-061), and 1% Penicillin Streptomycin (Thermo Fisher #15140-122). PC-3 cells were incubated at 37° C., 5% CO2 for 24 h and then starved for 3 h in serum-free medium. Test compounds were serially diluted to produce an 8-point dose curve in fresh serum-free medium to a final concentration of 0.3% DMSO (vehicle) and added to the cells and incubated for 1 h. Cells were then stimulated with 100 ng/mL recombinant human HGF (R&D Systems #294-HG-250) for 10 min, washed with cold PBS, and immediately lysed with 130 μL of cold IX lysis buffer [20 mM Tris, 137 mM sodium chloride, 2 mM EDTA, 10% glycerol, 1% NP-40 alternative, 1 mM activated sodium orthovanadate, 1 mM PefaBloc SC (Sigma-Aldrich #11429868001), protease/phosphatase inhibitor tablet (Thermo Fisher #A32959)]. Lysates were clarified by centrifugation and 100 μL/well added into the PathScan phospho-Met (panTyr) Sandwich ELISA (Cell Signaling Technology #7333). Assay was performed according to manufacturer's instructions. Positive control wells (100% activity) contained HGF-stimulated, DMSO-treated cell lysates. Negative control wells (0% activity) contained HGF-stimulated, reference inhibitor-treated cell lysates. IC50 values were calculated by nonlinear regression analysis using a 4-parameter logistic curve fit in ActivityBase XL (IDBS).

KDR = KDR (Homo sapiens (Human), UniProt P35968); assay: KDR autophosphorylation ELISA in HUVEC cells; details: cellular, VEGF165-stimulated, phospho-KDR ELISA
Chain of KDR (P35968 20-1356): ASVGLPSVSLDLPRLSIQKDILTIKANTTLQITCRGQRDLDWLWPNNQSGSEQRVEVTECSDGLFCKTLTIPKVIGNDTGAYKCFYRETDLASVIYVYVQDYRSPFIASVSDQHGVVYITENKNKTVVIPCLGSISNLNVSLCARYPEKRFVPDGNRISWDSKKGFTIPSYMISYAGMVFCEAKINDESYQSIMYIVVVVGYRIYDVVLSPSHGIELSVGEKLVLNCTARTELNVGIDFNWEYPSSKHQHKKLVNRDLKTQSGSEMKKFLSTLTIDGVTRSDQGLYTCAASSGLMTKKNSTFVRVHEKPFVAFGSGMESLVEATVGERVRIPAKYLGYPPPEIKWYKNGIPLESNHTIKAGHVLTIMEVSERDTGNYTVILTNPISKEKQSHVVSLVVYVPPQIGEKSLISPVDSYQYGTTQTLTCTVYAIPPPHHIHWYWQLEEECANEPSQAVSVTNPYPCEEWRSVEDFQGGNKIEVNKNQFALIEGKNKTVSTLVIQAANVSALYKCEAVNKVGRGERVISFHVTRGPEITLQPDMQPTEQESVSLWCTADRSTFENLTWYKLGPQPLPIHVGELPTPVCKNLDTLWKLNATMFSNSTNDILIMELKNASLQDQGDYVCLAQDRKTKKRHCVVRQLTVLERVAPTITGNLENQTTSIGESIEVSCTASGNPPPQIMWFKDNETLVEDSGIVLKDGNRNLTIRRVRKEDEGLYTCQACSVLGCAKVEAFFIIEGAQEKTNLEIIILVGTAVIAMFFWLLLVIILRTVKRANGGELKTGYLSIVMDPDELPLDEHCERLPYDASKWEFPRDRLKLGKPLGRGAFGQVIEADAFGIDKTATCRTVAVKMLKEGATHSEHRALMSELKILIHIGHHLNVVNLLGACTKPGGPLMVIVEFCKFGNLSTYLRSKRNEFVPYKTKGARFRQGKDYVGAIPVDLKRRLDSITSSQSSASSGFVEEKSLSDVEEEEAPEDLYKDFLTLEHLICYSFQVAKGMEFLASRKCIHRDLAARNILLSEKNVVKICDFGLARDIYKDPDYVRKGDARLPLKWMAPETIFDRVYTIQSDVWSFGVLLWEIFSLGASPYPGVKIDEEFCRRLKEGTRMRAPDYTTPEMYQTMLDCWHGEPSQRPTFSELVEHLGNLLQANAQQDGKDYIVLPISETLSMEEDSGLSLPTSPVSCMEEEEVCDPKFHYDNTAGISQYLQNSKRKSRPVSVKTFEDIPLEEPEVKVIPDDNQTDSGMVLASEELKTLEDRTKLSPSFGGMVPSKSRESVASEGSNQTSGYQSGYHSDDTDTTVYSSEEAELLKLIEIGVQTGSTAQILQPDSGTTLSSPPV
Protocol: Human umbilical vein endothelial cells or HUVEC (Lonza #C2519A) were seeded at 2×10^4 cells/well onto 96-well plates (Corning #3904), in EGM-2 growth medium (Lonza #CC-3162) containing 1% Penicillin Streptomycin (Thermo Fisher #15140-122). HUVEC cells were incubated at 37° C., 5% CO2 for 24 h and then starved for 24 h in serum-free EBM-2 basal medium (Lonza #CC-3156) containing 1% Penicillin Streptomycin. Test compounds were serially diluted to produce an 8-point dose curve in fresh serum-free medium to a final concentration of 0.3% DMSO (vehicle) and added to the cells and incubated for 1 h. Cells were then stimulated with 100 ng/mL recombinant human VEGF165 (R&D Systems #293-VE-500) for 5 min, washed with cold PBS, and immediately lysed with 130 μL of cold 1× lysis buffer [20 mM Tris, 137 mM sodium chloride, 2 mM EDTA, 10% glycerol, 1% NP-40 alternative, 1 mM activated sodium orthovanadate, 1 mM PefaBloc SC (Sigma-Aldrich #11429868001), protease/phosphatase inhibitor tablet (Thermo Fisher #A32959)]. Lysates were collected and 100 μL/well added into the human phospho-KDR Duo Set IC ELISA (R&D Systems #DYC 1766-2). Assay was performed according to manufacturer's instructions and sample phospho-KDR concentrations were extrapolated using human phospho-KDR control (R&D Systems #841421) as a standard. Positive control wells (100% activity) contained VEGF165-stimulated, DMSO-treated cell lysates. Negative control wells (0% activity) contained non-stimulated cell lysates. IC50 values were calculated by nonlinear regression analysis using a 4-parameter logistic curve fit in ActivityBase XE (IDBS).

Chain of AXL (P30530 26-894): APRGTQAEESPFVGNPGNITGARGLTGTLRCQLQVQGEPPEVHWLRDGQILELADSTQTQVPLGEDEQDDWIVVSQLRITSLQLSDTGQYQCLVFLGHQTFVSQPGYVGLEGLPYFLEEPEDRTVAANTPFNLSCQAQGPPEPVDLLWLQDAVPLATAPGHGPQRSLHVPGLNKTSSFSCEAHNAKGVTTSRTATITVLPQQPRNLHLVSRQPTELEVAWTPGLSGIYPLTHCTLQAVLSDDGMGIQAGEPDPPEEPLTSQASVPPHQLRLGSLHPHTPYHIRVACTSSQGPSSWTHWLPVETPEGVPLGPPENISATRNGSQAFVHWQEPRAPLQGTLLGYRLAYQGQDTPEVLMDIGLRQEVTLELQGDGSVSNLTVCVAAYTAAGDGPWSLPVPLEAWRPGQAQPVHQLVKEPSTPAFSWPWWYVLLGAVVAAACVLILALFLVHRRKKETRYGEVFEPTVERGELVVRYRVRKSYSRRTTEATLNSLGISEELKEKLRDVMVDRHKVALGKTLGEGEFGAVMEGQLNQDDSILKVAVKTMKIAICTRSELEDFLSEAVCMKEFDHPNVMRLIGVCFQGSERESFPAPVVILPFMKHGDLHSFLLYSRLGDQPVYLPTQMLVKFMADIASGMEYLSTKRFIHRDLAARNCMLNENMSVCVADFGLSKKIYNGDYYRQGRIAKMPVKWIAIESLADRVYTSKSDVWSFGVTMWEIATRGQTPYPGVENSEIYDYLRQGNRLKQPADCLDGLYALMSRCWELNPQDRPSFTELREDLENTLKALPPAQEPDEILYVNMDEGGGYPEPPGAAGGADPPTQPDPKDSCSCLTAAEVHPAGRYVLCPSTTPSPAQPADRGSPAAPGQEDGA

| IC50 (AXL) | IC50 (Met) | IC50 (KDR) | SMILES |
| --- | --- | --- | --- |
| 10 to 100 nM | 100 to 300 nM | 100 to 300 nM | COc1cc2ncnc(Oc3ccc(NC(=O)C4(C(=O)Nc5ccc(F)cc5)CC4)c(Cl)c3)c2nc1OC [Compound 32, 1-N′-[2-chloro-4-(6,7-dimethoxypyrido[3,2-d]pyrimidin-4-yl)oxyphenyl]-1-N-(4-fluorophenyl)cyclo-propane-1,1-dicarboxamide] |
| 100 to 300 nM | > 300 nM | 100 to 300 nM | COc1cc2ncnc(Oc3ccc(NC(=O)C4(C(=O)Nc5ccc(F)cc5)CC4)c(C)c3)c2nc1OC [Compound 33, 1-N′-[4-(6,7-dimethoxypyrido[3,2-d]pyrimidin-4-yl)oxy-2-methylphenyl]-1-N-(4-fluorophenyl)cyclopropane-1,1-dicarboxamide] |
| 100 to 300 nM | > 300 nM | 10 to 100 nM | COc1cc(NC(=O)C2(C(=O)Nc3ccc(F)cc3)CC2)ccc1Oc1ncnc2cc(OCCCN3CCOCC3)c(OC)nc12 [Compound 74, 1-N-(4-fluorophenyl)-1-N′-[3-methoxy-4-[6-methoxy-7-(3-morpholin-4-ylpropoxy)pyrido[3,2-d]pyrimidin-4-yl]oxyphenyl]cyclopropane-1,1-dicarboxamide] |
| 10 to 100 nM | 100 to 300 nM | ≤ 10 nM | COCCOc1cc2ncnc(Oc3ccc(NC(=O)C4(C(=O)Nc5ccc(F)cc5)CC4)cc3)c2nc1OC [Compound 78, 1-N′-(4-fluorophenyl)-1-N-[4-[6-methoxy-7-(2-methoxyethoxy)pyrido[3,2-d]pyrimidin-4-yl]oxyphenyl]cyclopropane-1,1-dicarboxamide] |
| 100 to 300 nM | > 300 nM | > 300 nM | Cn1cc(-c2ccc3ncnc(Oc4ccc(NC(=O)C5(C(=O)Nc6ccc(F)cc6)CC5)cc4)c3c2)cn1 [Compound 126, 1-N′-(4-fluorophenyl)-1-N-[4-[6-(1-methylpyrazol-4-yl)quinazolin-4-yl]oxyphenyl]cyclo-propane-1,1-dicarboxamide] |
| ≤ 10 nM | 10 to 100 nM | ≤ 10 nM | COc1cc2nccc(Oc3cc(F)c(NC(=O)C4(C(=O)Nc5ccc(F)cc5)CC4)cc3F)c2nc1OC [Compound 142, 1-N′-[4-[(6,7-dimethoxy-1,5-naphthyridin-4-yl)oxy]-2,5-difluorophenyl]-1-N-(4-fluorophenyl)cyclo-propane-1,1-dicarboxamide] |
| ≤ 10 nM | 10 to 100 nM | ≤ 10 nM | COCCOc1cc2nccc(Oc3cc(F)c(NC(=O)C4(C(=O)Nc5ccc(F)cc5)CC4)cc3F)c2nc1OC [Compound 152, 1-N′-[2,5-difluoro-4-[[6-methoxy-7-(2-methoxy-ethoxy)-1,5-naphthyridin-4-yl]oxy]phenyl]-1-N-(4-fluoro-phenyl)cyclopropane-1,1-dicarboxamide] |
| ≤ 10 nM | 10 to 100 nM | ≤ 10 nM | COc1nc2c(Oc3cc(F)c(NC(=O)C4(C(=O)Nc5ccc(F)cc5)CC4)cc3F)ccnc2cc1OCCN1CCOCC1 [Compound 153, 1-N′-[2,5-difluoro-4-[[6-methoxy-7-(2-morpholin-4-ylethoxy)-1,5-naphthyridin-4-yl]oxy]phenyl]-1-N-(4-fluorophenyl)cyclo-propane-1,1-dicarboxamide] |
| > 300 nM | > 300 nM | > 300 nM | O=C(Nc1ccc(F)cc1)C1(C(=O)Nc2ccc(Oc3ccnc4cc5c(nc34)OCCO5)cc2)CC1 [Compound 157, 1-N-[4-(2,3-dihydro-[1,4]dioxino[2,3-b][1,5]naphthyridin-6-yloxy)phenyl]-1-N′-(4-fluorophenyl)cyclopropane-1,1-dicarboxamide] |
| > 300 nM | > 300 nM | > 300 nM | O=C(Nc1ccc(F)cc1)C1(C(=O)Nc2ccc(Oc3ccnc4cc5c(nc34)OCCO5)c(F)c2)CC1 [Compound 158, 1-N′-[4-(2,3-dihydro-[1,4]dioxino[2,3-b][1,5]naphthyridin-6-yloxy)-3-fluorophenyl]-1-N-(4-fluorophenyl)cyclo-propane-1,1-dicarboxamide] |
| > 300 nM | 100 to 300 nM | > 300 nM | O=C(Nc1ccc(F)cc1)C1(C(=O)Nc2ccc(Oc3ccnc4cc5c(nc34)OCCO5)c(Cl)c2)CC1 [Compound 159, 1-N′-[3-chloro-4-(2,3-dihydro-[1,4]dioxino[2,3-b][1,5]naphthyridin-6-yloxy)phenyl]-1-N-(4-fluorophenyl)cyclopropane-1,1-dicarboxamide] |
| 100 to 300 nM | > 300 nM | 100 to 300 nM | COc1cc2nccc(Oc3ccc(NC(=O)C4(C(=O)Nc5ccc(F)cc5)CC4)cc3)c2nc1C#N [Compound 164, 1-N-[4-[(6-cyano-7-methoxy-1,5-naphthyridin-4-yl)oxy]phenyl]-1-N′-(4-fluoro-phenyl)cyclopropane-1,1-dicarboxamide] |
| 10 to 100 nM | 100 to 300 nM | 100 to 300 nM | COc1cc2nccc(Oc3ccc(NC(=O)C4(C(=O)Nc5ccc(F)cc5)CC4)cc3F)c2nc1C#N [Compound 165, 1-N′-[4-[(6-cyano-7-methoxy-1,5-naphthyridin-4-yl)oxy]-3-fluorophenyl]-1-N-(4-fluorophenyl)cyclo-propane-1,1-dicarboxamide] |
| 100 to 300 nM | 100 to 300 nM | 10 to 100 nM | COc1cc2nccc(Oc3ccc(NC(=O)C4(C(=O)Nc5ccc(F)cc5)CC4)cc3Cl)c2nc1C#N [Compound 166, 1-N′-[3-chloro-4-[(6-cyano-7-methoxy-1,5-naphthyridin-4-yl)oxy]phenyl]-1-N-(4-fluorophenyl)cyclopropane-1,1-dicarboxamide] |
| 100 to 300 nM | > 300 nM | > 300 nM | COc1cc2nccc(Oc3ccc(NC(=O)C4(C(=O)Nc5ccc(F)cc5)CC4)cc3)c2nc1C(N)=O [Compound 167, 1-N-[4-[(6-carbamoyl-7-methoxy-1,5-naphthyridin-4-yl)oxy]phenyl]-1-N′-(4-fluorophenyl)cyclopropane-1,1-dicarboxamide] |
| > 300 nM | 100 to 300 nM | > 300 nM | COc1cc2nccc(Oc3ccc(NC(=O)C4(C(=O)Nc5ccc(F)cc5)CC4)cc3F)c2nc1C(N)=O [Compound 168, 1-N′-[4-[(6-carbamoyl-7-methoxy-1,5-naphthyridin-4-yl)oxy]-3-fluoro-phenyl]-1-N-(4-fluorophenyl)cyclopropane-1,1-dicarboxamide] |

From patent US11708367B2, “Compounds for the treatment of kinase-dependent disorders” (Exelixis, Inc., priority 2018, dated 2023)
